Test results from US4146624A, “Method of treating viruses with bis-basic ketones of dibenzofuran” (Richardson-Merrell Inc., priority 1970, dated 1979).
Counter-ions that a name gives are not always drawn.

Tested on: Encephalomyocarditis
Experiment: in vivo antiviral study, mice challenged subcutaneously with encephalomyocarditis virus
Settings: observation 9 days
Method: Examples 25 to 36 illustrate in vivo antiviral studies with compounds, also referred to as active ingredients, of this invention. In each of the examples the compounds were antivirally active. […] The dosage levels of the compounds used in the examples were within the range of 10 to 250 mg. per kg. of animal body weight for each time the compound was administered.
Table A lists the active ingredient which was administered in each of the examples. Although it is believed that the headings in the examples are self-explanatory, some of the headings are explained as follows. The "challenge," that is, the inoculation with a virus used is generally fatal to all the untreated, that is, control animals in the experiment. "Time of death" refers to the average time of death for the untreated animals. The "Treatment" was prophylactic or therapeutic or both. The term "volume" refers to the volume of composition administered per dose which contained the active ingredient dissolved in sterile water which also contained 0.15% of hydroxyethylcellulose.

[1] = Proph. & Therap., 50 mg/kg subcutaneous, 28,22,2 hrs. pre- and 2 hrs. post-challenge, challenge 10 LD50
[2] = prophylactic, 250 mg/kg oral, 22 hrs. pre-challenge, challenge 6 LD50

Q: What does the source list for `CN(C)CC(=O)c1ccc2oc3ccc(C(=O)CN(C)C)cc3c2c1.Cl.Cl.O.O` [Example 35, 2,8-bis-[2-(dimethylamino)acetyl]dibenzofuran dihydrochloride dihydrate]?
A: antiviral activity (Proph. & Therap., 50 mg/kg oral, 28,22,2 hrs. pre- and 2 hrs. post-challenge, challenge 10 LD50): Yes; antiviral activity [1]: Yes

Q: `O=C(CN1CCCCC1)c1ccc2oc3ccc(C(=O)CN4CCCCC4)cc3c2c1` [Example 31, 2,8-bis-(piperidinoacetyl)dibenzofuran] was tested. Which antiviral activity (Proph. & Therap., 250 mg/kg subcutaneous, 28,22,2 hrs. pre- and 2 hrs. post-challenge, challenge 32 LD50) did it give?
A: Yes

Q: And the antiviral activity (prophylactic, 250 mg/kg oral, 22 hrs. pre-challenge, challenge 32 LD50)?
A: Yes

Q: How did the antiviral activity (prophylactic, 50 mg/kg subcutaneous, 28,22,2 hrs. pre-challenge, challenge 6 LD50) turn out when `O=C(CCCN1CCCCC1)c1ccc2oc3ccc(C(=O)CCCN4CCCCC4)cc3c2c1` [Example 25, 2,8-bis-(4-piperidinobutyryl)dibenzofuran] was run?
A: Yes

Q: And the antiviral activity [2]?
A: Yes

Q: For `CCN(CC)CC(=O)c1ccc2oc3ccc(C(=O)CN(CC)CC)cc3c2c1` [Example 33, 2,8-bis-[2-(diethylamino)acetyl]dibenzofuran dihydrochloride hemihydrate], which antiviral activity (Proph. & Therap., 50 mg/kg subcutaneous, 28,22,2 hrs. pre- and 2 hrs. post-challenge, challenge 12 LD50) is on record?
A: Yes

Q: And the antiviral activity (prophylactic, 250 mg/kg oral, 22 hrs. pre-challenge, challenge 12 LD50)?
A: Yes

Q: With `CC1CCN(CCCC(=O)c2ccc3oc4ccc(C(=O)CCCN5CCC(C)CC5)cc4c3c2)CC1` [Example 27, 2,8-bis-[4-(4-methylpiperidino)butyryl]dibenzofuran] as the compound, how does the antiviral activity (Proph. & Therap., 10 mg/kg subcutaneous, 28,22,2 hrs. pre- and 2 hrs. post-challenge, challenge 6 LD50) read?
A: Yes

Q: And the antiviral activity [2]?
A: Yes

Q: `O=C(CCCN1CCC(Cc2ccccc2)CC1)c1ccc2oc3ccc(C(=O)CCCN4CCC(Cc5ccccc5)CC4)cc3c2c1` [Example 29, 2,8-bis-[4-(4-benzylpiperidino)butyryl]dibenzofuran] was tested. Which antiviral activity (Proph. & Therap., 10 mg/kg subcutaneous, 28,22,2 hrs. pre- and 2 hrs. post-challenge, challenge 18 LD50) did it give?
A: Yes

Q: With `O=C(CCCN1CCOCC1)c1ccc2oc3ccc(C(=O)CCCN4CCOCC4)cc3c2c1` [Example 30, 2,8-bis-(4-morpholinobutyryl)dibenzofuran] as the compound, how does the antiviral activity [1] read?
A: Yes
